Active and inactive are the calls of the source. The calls are words filed in the database; no cut-off is given here.
Legend:
MCF7 = assay: Cytotoxicity against human MCF7 cells assessed as cell viability after 48 hrs by SRB assay; assay type: functional, cell-based; settings: MCF7, 48 h
[1] = Cytotoxicity against human DU145 cells assessed as cell viability after 48 hrs by SRB assay; assay type: functional, cell-based; settings: DU-145, 48 h
HeLa [2] = assay: Cytotoxicity against human HeLa cells assessed as cell viability after 48 hrs by SRB assay; assay type: functional, cell-based
[3] = Cytotoxicity against human MIAPaCa2 cells assessed as cell viability after 48 hrs by SRB assay; assay type: functional, cell-based; settings: MIA PaCa-2, 48 h
Tubulin (Homo sapiens) = Tubulin (Homo sapiens) (UniProt P68371+Q9H4B7+P0DPH7+P68366+Q13509+Q71U36+P04350+Q3ZCM7+P07437+P68363+Q9BQE3+Q6PEY2+Q13885+Q9BVA1+Q9BUF5); assay: Inhibition of colchicine binding to tubulin (unknown origin) assessed as decrease in tubulin-colchicine complex at 0 to 15 uM incubated for 1 hr by fluorescence based colchicine competitive binding assay; assay type: protein-complex assay
HeLa [4] = assay: Disruption of microtubule organization in human HeLa cells at 5 uM after 24 hrs by DAPI-FITC staining based confocal microscopic analysis; assay type: functional, cell-based
HeLa [5] = assay: Induction of apoptosis in human HeLa cells assessed as induction of cyclin B1 levels at 5 uM after 24 hrs by Western blot analysis; assay type: functional, cell-based
HeLa [6] = assay: Induction of apoptosis in human HeLa cells assessed as activation of cyclin B1 mRNA levels at 5 uM after 24 hrs by semi-quantitative RT-PCR; assay type: functional, cell-based
Tubulin (Sus scrofa) = Tubulin (Sus scrofa) (UniProt P02554+P02550); assay: Inhibition of porcine brain tubulin polymerization at 5 uM by fluorescence based assay
Chain of Tubulin (Sus scrofa) (P02550 whole entry, looked up): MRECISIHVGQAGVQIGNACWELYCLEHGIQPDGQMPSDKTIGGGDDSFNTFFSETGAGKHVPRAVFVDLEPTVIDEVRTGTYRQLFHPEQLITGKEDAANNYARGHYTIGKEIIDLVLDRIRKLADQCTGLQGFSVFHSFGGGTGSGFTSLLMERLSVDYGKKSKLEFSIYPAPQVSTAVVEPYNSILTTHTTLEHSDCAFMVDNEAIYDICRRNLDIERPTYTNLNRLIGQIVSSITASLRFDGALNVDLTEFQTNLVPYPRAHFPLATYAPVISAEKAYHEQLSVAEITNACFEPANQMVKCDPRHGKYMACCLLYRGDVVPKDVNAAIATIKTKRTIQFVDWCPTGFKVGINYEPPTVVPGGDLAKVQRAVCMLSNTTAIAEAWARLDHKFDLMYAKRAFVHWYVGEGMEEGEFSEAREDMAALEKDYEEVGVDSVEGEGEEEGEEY
Chain of Tubulin (Sus scrofa) (P02554 whole entry, looked up): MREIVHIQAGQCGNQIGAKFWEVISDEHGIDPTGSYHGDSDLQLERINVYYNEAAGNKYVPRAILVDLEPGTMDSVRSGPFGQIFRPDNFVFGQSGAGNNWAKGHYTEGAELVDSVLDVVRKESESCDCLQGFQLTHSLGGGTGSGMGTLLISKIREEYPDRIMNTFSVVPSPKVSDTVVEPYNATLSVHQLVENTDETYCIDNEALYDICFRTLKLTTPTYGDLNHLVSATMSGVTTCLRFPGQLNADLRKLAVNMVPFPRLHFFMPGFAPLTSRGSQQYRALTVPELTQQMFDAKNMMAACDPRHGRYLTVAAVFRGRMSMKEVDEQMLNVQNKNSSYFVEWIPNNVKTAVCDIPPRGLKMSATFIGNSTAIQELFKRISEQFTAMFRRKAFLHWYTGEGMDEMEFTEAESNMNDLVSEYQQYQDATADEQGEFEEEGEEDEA

Tubulin = Tubulin (Sus scrofa, UniProt P02554+P02550); assay: Inhibition of porcine brain tubulin polymerization by fluorescence based assay
HeLa [7] = assay: Induction of apoptosis in human HeLa cells assessed as activation of caspase-3 activity at 2 uM after 24 hrs by ELISA; assay type: functional
HeLa [8] = assay: Induction of apoptosis in human HeLa cells assessed as activation of caspase-3 activity at 4 uM after 24 hrs by ELISA; assay type: functional
HeLa [9] = assay: Induction of cell cycle arrest in human HeLa cells assessed as cell arrest at accumulation at G2/M phase at 5 uM after 24 hrs by flow cytometric analysis (reference value: 25.49%); assay type: functional
HeLa [10] = assay: Induction of cell cycle arrest in human HeLa cells assessed as cell arrest at accumulation at G2/M phase at 2 uM after 24 hrs by flow cytometric analysis (reference value: 25.49%); assay type: functional

## COc1cc(-c2nc3sc(C4CC4)nn3c2-c2ccc(F)c(Cl)c2)cc(OC)c1OC
MCF7
  IC50: 18.7 µM
[1]
  IC50: 13.7 µM
HeLa [2]
  IC50: 15.5 µM
[3]
  IC50: 20.7 µM

## CCc1nn2c(-c3ccc(C(F)(F)F)cc3)c(-c3cc(OC)c(OC)c(OC)c3)nc2s1
MCF7
  IC50: 11.8 µM
[1]
  IC50: 18.3 µM
HeLa [2]
  IC50: 10.5 µM
[3]
  IC50: 14.8 µM

## CCc1nn2c(-c3ccc4ccccc4c3)c(-c3cc(OC)c(OC)c(OC)c3)nc2s1
Tubulin (Homo sapiens)
  inhibition: Dose-dependent effect
MCF7
  IC50: 2.4 µM
HeLa [4]
  Activity: Active
HeLa [5]
  Activity: Active
HeLa [6]
  Activity: Active
Tubulin (Sus scrofa)
  inhibition: 75.1%
Tubulin
  IC50: 1.7 µM
[1]
  IC50: 4.49 µM
HeLa [7]
  fold change (FC): 2.5
HeLa [2]
  IC50: 1.6 µM
HeLa [8]
  fold change (FC): 2.5
HeLa [9]
  Activity: 78.3%
[3]
  IC50: 1.2 µM
HeLa [10]
  Activity: 64.84%

## CCc1ccc(-c2c(-c3cc(OC)c(OC)c(OC)c3)nc3sc(CC)nn23)cc1
MCF7
  IC50: 12.5 µM
[1]
  IC50: 24.4 µM
HeLa [2]
  IC50: 12.4 µM
[3]
  IC50: 14.6 µM

## COc1cc(F)ccc1-c1c(-c2cc(OC)c(OC)c(OC)c2)nc2sc(C3CC3)nn12
MCF7
  IC50: 34.8 µM
[1]
  IC50: 22.4 µM
HeLa [2]
  IC50: 25.9 µM
[3]
  IC50: 40.9 µM

## CCc1ccc(-c2c(-c3cc(OC)c(OC)c(OC)c3)nc3sc(C4CC4)nn23)cc1
MCF7
  IC50: 29.3 µM
[1]
  IC50: 13.5 µM
HeLa [2]
  IC50: 36.2 µM
[3]
  IC50: 39.8 µM

## COc1cc(-c2nc3sc(C4CC4)nn3c2-c2ccc(Cl)cc2)cc(OC)c1OC
MCF7
  IC50: 22.9 µM
[1]
  IC50: 11.6 µM
HeLa [2]
  IC50: 19.2 µM
[3]
  IC50: 17.4 µM

## COc1cc(-c2nc3sc(C4CC4)nn3c2-c2ccc(C)cc2)cc(OC)c1OC
MCF7
  IC50: 26.1 µM
[1]
  IC50: 18.5 µM
HeLa [2]
  IC50: 20.5 µM
[3]
  IC50: 29.8 µM

## CCc1nn2c(-c3ccc(Cl)cc3)c(-c3cc(OC)c(OC)c(OC)c3)nc2s1
MCF7
  IC50: 12.2 µM
[1]
  IC50: 19.1 µM
HeLa [2]
  IC50: 13.7 µM
[3]
  IC50: 15.4 µM

## CCc1nn2c(-c3ccc(OC)c(OC)c3)c(-c3cc(OC)c(OC)c(OC)c3)nc2s1
MCF7
  IC50: 11.4 µM
[1]
  IC50: 13.3 µM
HeLa [2]
  IC50: 14.6 µM
[3]
  IC50: 14.6 µM

## CCc1nn2c(-c3ccc(N(C)C)cc3)c(-c3cc(OC)c(OC)c(OC)c3)nc2s1
MCF7
  IC50: 1.9 µM
HeLa [4]
  Activity: Active
HeLa [5]
  Activity: Active
HeLa [6]
  Activity: Active
Tubulin (Sus scrofa)
  inhibition: 66.8%
Tubulin
  IC50: 3.1 µM
[1]
  IC50: 2.75 µM
HeLa [7]
  fold change (FC): 2.5
HeLa [2]
  IC50: 2.2 µM
HeLa [8]
  fold change (FC): 2.5
HeLa [9]
  Activity: 67.53%
[3]
  IC50: 2.5 µM
HeLa [10]
  Activity: 55.3%

## CCc1nn2c(-c3ccccc3)c(-c3cc(OC)c(OC)c(OC)c3)nc2s1
MCF7
  IC50: 11.5 µM
[1]
  IC50: 14.6 µM
HeLa [2]
  IC50: 10.8 µM
[3]
  IC50: 13.4 µM

## COc1ccc(-c2c(-c3cc(OC)c(OC)c(OC)c3)nc3sc(C4CC4)nn23)cc1OC
MCF7
  IC50: 12.9 µM
[1]
  IC50: 16.6 µM
HeLa [2]
  IC50: 15.6 µM
[3]
  IC50: 19.6 µM

## COc1cc(-c2nc3sc(C4CC4)nn3c2-c2cc(F)cc(F)c2)cc(OC)c1OC
MCF7
  IC50: 23.4 µM
[1]
  IC50: 16.9 µM
HeLa [2]
  IC50: 17.3 µM
[3]
  IC50: 29.6 µM

## CCc1nn2c(-c3ccc(OC(F)(F)F)cc3)c(-c3cc(OC)c(OC)c(OC)c3)nc2s1
MCF7
  IC50: 14.8 µM
[1]
  IC50: 23.5 µM
HeLa [2]
  IC50: 13.4 µM
[3]
  IC50: 16.4 µM

## CCc1nn2c(-c3ccc(F)cc3OC)c(-c3cc(OC)c(OC)c(OC)c3)nc2s1
MCF7
  IC50: 30.2 µM
[1]
  IC50: 35.2 µM
HeLa [2]
  IC50: 28.1 µM
[3]
  IC50: 29.1 µM

## CCc1nn2c(-c3ccc(F)c(Cl)c3)c(-c3cc(OC)c(OC)c(OC)c3)nc2s1
MCF7
  IC50: 14.5 µM
[1]
  IC50: 11.4 µM
HeLa [2]
  IC50: 13.9 µM
[3]
  IC50: 17.3 µM

## COc1cc(-c2nc3sc(C4CC4)nn3c2-c2cc(OC)c(OC)c(OC)c2)cc(OC)c1OC
MCF7
  IC50: 36.5 µM
[1]
  IC50: 52.1 µM
HeLa [2]
  IC50: 13.7 µM
[3]
  IC50: 39.6 µM

## COc1cc(-c2nc3sc(C4CC4)nn3c2-c2ccccc2)cc(OC)c1OC
MCF7
  IC50: 42.3 µM
[1]
  IC50: 25.6 µM
HeLa [2]
  IC50: 35.4 µM
[3]
  IC50: 31.5 µM

## CC(=O)O[C@H]1C(=O)[C@@]2(C)[C@H]([C@H](OC(=O)c3ccccc3)[C@]3(O)C[C@H](OC(=O)[C@H](O)[C@@H](NC(=O)c4ccccc4)c4ccccc4)C(C)=C1C3(C)C)[C@]1(OC(C)=O)CO[C@@H]1C[C@@H]2O
Tubulin (Homo sapiens)
  inhibition: inactive
HeLa [5]
  Activity: Active
HeLa [6]
  Activity: Active

## COc1ccc(-c2c(-c3cc(OC)c(OC)c(OC)c3)nc3sc(C4CC4)nn23)cc1
MCF7
  IC50: 11.6 µM
[1]
  IC50: 10.5 µM
HeLa [2]
  IC50: 14.6 µM
[3]
  IC50: 16.9 µM

## CCc1nn2c(-c3ccc(C)cc3)c(-c3cc(OC)c(OC)c(OC)c3)nc2s1
MCF7
  IC50: 16.7 µM
[1]
  IC50: 21.7 µM
HeLa [2]
  IC50: 14.8 µM
[3]
  IC50: 20.4 µM

## COc1cc(-c2nc3sc(C4CC4)nn3c2-c2ccc(C(F)(F)F)cc2)cc(OC)c1OC
MCF7
  IC50: 18.4 µM
[1]
  IC50: 15.2 µM
HeLa [2]
  IC50: 43.5 µM
[3]
  IC50: 23.4 µM

## CCc1nn2c(-c3cc(F)cc(F)c3)c(-c3cc(OC)c(OC)c(OC)c3)nc2s1
MCF7
  IC50: 36.4 µM
[1]
  IC50: 21.6 µM
HeLa [2]
  IC50: 26.4 µM
[3]
  IC50: 30.6 µM

## CCc1nn2c(-c3ccc(OC)cc3)c(-c3cc(OC)c(OC)c(OC)c3)nc2s1
MCF7
  IC50: 25.4 µM
[1]
  IC50: 25.4 µM
HeLa [2]
  IC50: 21.6 µM
[3]
  IC50: 30.5 µM

## COc1cc(-c2nc3sc(C4CC4)nn3c2-c2ccc(F)cc2)cc(OC)c1OC
MCF7
  IC50: 19.6 µM
[1]
  IC50: 15.1 µM
HeLa [2]
  IC50: 15.6 µM
[3]
  IC50: 27.6 µM

## COc1cc(-c2nc3sc(C4CC4)nn3c2-c2ccc3c(c2)OCO3)cc(OC)c1OC
MCF7
  IC50: 25.6 µM
[1]
  IC50: 12.8 µM
HeLa [2]
  IC50: 16.8 µM
[3]
  IC50: 19.4 µM

## COc1cc(-c2nc3sc(C4CC4)nn3c2-c2ccc(N(C)C)cc2)cc(OC)c1OC
MCF7
  IC50: 3.4 µM
HeLa [4]
  Activity: Active
HeLa [5]
  Activity: Active
HeLa [6]
  Activity: Active
Tubulin (Sus scrofa)
  inhibition: 60.9%
Tubulin
  IC50: 3.8 µM
[1]
  IC50: 3.45 µM
HeLa [7]
  fold change (FC): 2.5
HeLa [2]
  IC50: 2.9 µM
HeLa [8]
  fold change (FC): 2.5
HeLa [9]
  Activity: 72.5%
[3]
  IC50: 2.5 µM
HeLa [10]
  Activity: 57.66%

## CCc1nn2c(-c3ccc(F)cc3)c(-c3cc(OC)c(OC)c(OC)c3)nc2s1
MCF7
  IC50: 9.8 µM
[1]
  IC50: 16.6 µM
HeLa [2]
  IC50: 11.3 µM
[3]
  IC50: 10.5 µM

## COc1cc(-c2nc3sc(C4CC4)nn3c2-c2ccc3ccccc3c2)cc(OC)c1OC
MCF7
  IC50: 15.3 µM
[1]
  IC50: 45.2 µM
HeLa [2]
  IC50: 19.4 µM
[3]
  IC50: 21.6 µM

## COc1ccc(/C=C\c2cc(OC)c(OC)c(OC)c2)cc1O [COMBRETASTATIN A4]
MCF7
  IC50: 0.134 µM
HeLa [4]
  Activity: Active
HeLa [5]
  Activity: Active
HeLa [6]
  Activity: Active
[1]
  IC50: 0.12 µM
HeLa [7]
  fold change (FC): 2.5
HeLa [2]
  IC50: 0.15 µM
HeLa [8]
  fold change (FC): 2.5
HeLa [9]
  Activity: 83.95%
[3]
  IC50: 0.087 µM

## COc1cc(-c2nc3sc(C4CC4)nn3c2-c2ccc(OC(F)(F)F)cc2)cc(OC)c1OC
MCF7
  IC50: 16.8 µM
[1]
  IC50: 13 µM
HeLa [2]
  IC50: 11.3 µM
[3]
  IC50: 18.2 µM

## COC(=O)Nc1nc2cc(C(=O)c3cccs3)ccc2[nH]1
Tubulin (Sus scrofa)
  inhibition: 79.2%

## CCc1nn2c(-c3ccc4c(c3)OCO4)c(-c3cc(OC)c(OC)c(OC)c3)nc2s1
MCF7
  IC50: 11.5 µM
[1]
  IC50: 18.8 µM
HeLa [2]
  IC50: 8.7 µM
[3]
  IC50: 13.1 µM

## CCc1nn2c(-c3cc(OC)c(OC)c(OC)c3)c(-c3cc(OC)c(OC)c(OC)c3)nc2s1
MCF7
  IC50: 20.4 µM
[1]
  IC50: 13.4 µM
HeLa [2]
  IC50: 17.5 µM
[3]
  IC50: 19.6 µM
